Measurements published in patent US4665082A, “Cysteine delivery system” (Cornell Research Foundation, priority 1985, dated 1987).
Entries after “also recorded” stand apart in the source; their conditions may differ.

How the values were obtained:
5-oxo-L-prolinase [1] = target: T1, 5-oxo-L-prolinase (Rattus norvegicus, UniProt P97608); test: Action of 5-oxo-L-prolinase on substrates (formation of ADP and amino acid); format: biochemical; details: for Reaction with the enzyme in the presence of ATP (formation of ADP and cysteine): incubation with 5-oxo-L-prolinase and ATP, FIG. 2: 5 mM substrate
T1 construct: 5-Oxo-L-prolinase was isolated from rat kidney and freed of 5-oxoproline by gel filtration; from tissue; host or cells: rat kidney
T1 sequence (P97608 1-1288): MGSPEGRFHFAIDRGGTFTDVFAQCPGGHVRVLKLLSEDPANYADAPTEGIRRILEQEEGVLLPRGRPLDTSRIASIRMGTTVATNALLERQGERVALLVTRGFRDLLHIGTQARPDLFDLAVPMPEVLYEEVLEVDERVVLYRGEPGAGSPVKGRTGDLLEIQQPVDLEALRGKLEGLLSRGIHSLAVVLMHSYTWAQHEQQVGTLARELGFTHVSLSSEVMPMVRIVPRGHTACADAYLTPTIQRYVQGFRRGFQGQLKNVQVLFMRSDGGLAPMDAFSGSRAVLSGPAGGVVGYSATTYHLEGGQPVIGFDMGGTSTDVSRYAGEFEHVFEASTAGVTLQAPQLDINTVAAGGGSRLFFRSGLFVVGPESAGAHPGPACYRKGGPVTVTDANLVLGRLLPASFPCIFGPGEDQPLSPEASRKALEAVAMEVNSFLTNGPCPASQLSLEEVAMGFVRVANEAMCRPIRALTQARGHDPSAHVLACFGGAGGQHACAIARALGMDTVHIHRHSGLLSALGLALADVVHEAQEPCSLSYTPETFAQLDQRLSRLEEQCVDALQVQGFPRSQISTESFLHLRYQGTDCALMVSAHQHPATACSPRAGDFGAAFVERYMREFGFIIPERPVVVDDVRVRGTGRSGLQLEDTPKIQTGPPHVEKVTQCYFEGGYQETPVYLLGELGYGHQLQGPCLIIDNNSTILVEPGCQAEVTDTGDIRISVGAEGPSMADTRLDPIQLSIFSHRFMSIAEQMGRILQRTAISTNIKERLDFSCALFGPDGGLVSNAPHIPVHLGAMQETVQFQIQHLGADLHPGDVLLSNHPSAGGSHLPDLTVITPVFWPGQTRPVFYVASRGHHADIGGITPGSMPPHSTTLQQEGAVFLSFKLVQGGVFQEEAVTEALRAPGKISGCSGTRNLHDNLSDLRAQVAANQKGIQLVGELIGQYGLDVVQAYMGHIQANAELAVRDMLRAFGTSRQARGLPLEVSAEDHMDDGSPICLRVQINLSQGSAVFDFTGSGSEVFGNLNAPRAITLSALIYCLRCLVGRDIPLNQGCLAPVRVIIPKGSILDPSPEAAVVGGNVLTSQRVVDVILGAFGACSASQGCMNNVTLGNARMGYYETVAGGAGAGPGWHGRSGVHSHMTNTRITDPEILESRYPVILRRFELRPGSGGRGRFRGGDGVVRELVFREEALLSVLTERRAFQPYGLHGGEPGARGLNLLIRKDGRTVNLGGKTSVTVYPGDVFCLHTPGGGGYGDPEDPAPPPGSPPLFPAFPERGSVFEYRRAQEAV
Experimental: (§1) In the experiments the reaction mixtures were made up to contain (final volume 0.5 ml) 100 mM Na Hepes (Na salt of N-2-hydroxyethylpiperizine-N'-2ethanesulfonic acid) buffer (pH 8.0), 150 mM KCl, 8 mM MgCl2, 2 mM phosphoenolpyruvate, 5 mM ATP (adenosine triphosphate), pyruvate kinase, in excess, 20 micrograms of 5-oxoprolinase, and the substrate as indicated.
(§2) The L- and D-isomers of 2-oxothiazolidine-4-carboxylate were synthesized by the method set out in Kaneko et al, Bull, Chem. Soc. (Japan) vol. 37, pp. 242-4 (1964) as modified by the method of Shah et al, Cancer Research vol. 39, pp. 3942-7 (1979). 5-Oxo-L-prolinase was isolated from rat kidney and freed of 5-oxoproline by gel filtration. Other chemicals and materials were obtained commercially.
(§3) After incubation for 30 min. at 37° C., the reaction mixtures were treated with 0.1 volume of 1M HCl, and placed at 0° C. for 5 min.; and an equivalent volume of 1M 2-amino-2-hydroxylmethyl-1,3,-propanediol was added. Portions were analyzed for amino acids by use of a Durrum Model 500 amino acid analyzer. Cysteine was also determined in some experiments by reaction with 5,5'-dithiobis(2-nitrobenzoate (DTNB).
At the indicated intervals portions were analyzed for ADP by the method indicated in the Table footnote, and for cysteine by reaction with DTNB.

hepatic glutathione = test: Hepatic glutathione level after injection; format: in vivo, mice; details: for level of hepatic glutathione relative to controls: mice fasted overnight, intraperitoneal injection (Na salt, 6.5 mmol/kilo; D-isomer equivalent doses)
Experimental: The effect of injecting mice with L-2-oxothiazolidine-4-carboxylate on the level of hepatic glutathione was studied. […] The maximal effect was observed about 4 hours after injection. […] These findings are indicative of in vivo formation of cysteine after administration of L-2-oxothiazolidine-4-carboxylate.
Mice fastened overnight were injected intraperitoneally with NaCl (controls; dashed line) or with Na L-2-oxothiazolidine-4-carboxylate (6.5 mmol/kilo). At intervals, the mice were sacrificed and the excised liver was homogenized in 5 volumes of 1% picric acid. After centrifugation, the protein-free supernatant solutions were analyzed for glutathione by the method of Tietze, Anal. Biochem 27, 502-22 (1969). Analyses were carried out in duplicate. In a number of instances, these values were checked by the 2-vinylpyridine procedure of Griffith, Anal. Biochem. 106; 207-12 (1980); good agreement between the two methods was observed. In the figure, the points are mean values and the bars indicate the average deviation from the mean. The numbers in parentheses give the number of animals used. The value for the controls was 4.40±0.9 umol/g.

5-oxo-L-prolinase [2] = target: T1, 5-oxo-L-prolinase; test: Inhibition of utilization of 5-oxo-L-proline (glutamate formation) by the purified enzyme; format: biochemical; details: 1 mM 5-oxo-L-proline; under these conditions (1, 5, 10 mM)
Experimental: as §1, §2, §3
Energy for the reaction is supplied by the cleavage of ATP. […] The ratio of ADP to cysteine produced increased with time due undoubtedly to the loss of cysteine due to oxidation.

metabolism of glutamate = test: In vivo metabolism of L-[14C]glutamate (respiratory 14CO2); details: mice, injection of L-[14C]glutamate
Experimental: (§4) The in vitro results showing that L-2-oxothiazolidine-4-carboxylate inhibits utilization of 5-oxoproline were confirmed by in vivo experiments. In the latter, animals were injected with 5-oxo-L-[^14 C]proline and the respiratory [^14 CO2 ] produced was collected and measured for several hours. […] However, L-2-oxothiazolidine-4-carboxylate is a much more efficient inhibitor.
(§5) FIG. 3 depicts the inhibition of 5-oxoproline metabolism by L-2-oxothiazolidine-4-carboxylate. Mice fasted overnight were injected intraperitoneally with NaCl (Curve 1; open symbols; controls) or with Na L-2-oxothiazolidine-4-carboxylate (2.5 mmol/kilo) (Curve 2; closed symbols). After 10 min., the mice were injected subcutaneously with 5-oxo-L-[^14 C]proline (A) or with L-[^14 C]glutamate (B) (0.02 mmol; 1.1×10^6 cpm). The mice were then placed in metabolic chambers and the respiratory CO2 was collected in ethanolamine/methanol, 1:4 (vol/vol). In A, each curve represents the results on 3 animals; the points are mean values and the bars represent standard deviations from the mean. In B, each curve represents the average of closely-agreeing results obtained from 2 animals.

5-oxoproline metabolism = test: In vivo metabolism of 5-oxo-L-[14C]proline (respiratory 14CO2, urinary radioactivity); design: species or system mice
Experimental: as §4, §5

liver glutathione = test: Liver glutathione in animals depleted of hepatic glutathione (acetoaminophenol); format: in vivo; details: mice depleted of hepatic glutathione, compound given even two hours after acetoaminophenol
Experimental: Administration of this compound therefore provides a way of getting cysteine into cells. One cannot give cysteine itself without complications since this amino acid is toxic extracellularly. However, when the L-oxothiazolidine compound is injected it enters the cell where it is split giving rise to cysteine within the cell. In a number of clinical situations, for example, after poisoning with excessive pain-killing drugs, e.g., those containing active ingredients known as N-acetyl-para-aminophenol, paracetamol, and acetaminophen, the liver glutathione levels decrease markedly. When cysteine is supplied to liver cells, additional glutathione can be synthesized and thus serve usefully in detoxifying the offending drug. Therefore, L-2-oxothiazolidine-4-carboxylate serves as an intracellular delivery system for cysteine and has potential as a therapeutic agent in situations in which there is depletion of liver glutathione. After acetoaminophenol is given to experimental animals such as mice, the liver glutathione declines rapidly because it is extensively utilized by reaction with the drug. […] For human treatment the L-isomer, preferably in the form of its neutral salt is administered directly into the gastro-intestinal tract or introduced intravenously.

[3] = substrate 2 mM, 30 min at 37° C.

O=C1CC[C@@H](C(=O)O)N1 [5-Oxo-L-proline, 5-oxo-L-proline]
calculated Vmax value (5-oxo-L-prolinase [1]; natural substrate compared with the L-isomer): higher than that found for the L-isomer

O=C1N[C@@H](C(=O)O)CS1 [D-2-oxothiazolidine-4-carboxylate]
Reaction with the enzyme in the presence of ATP (formation of ADP and cysteine) (5-oxo-L-prolinase [1]; 5 mM ATP, listed as D-isomer): absence of reaction; also recorded: No reaction was observed
Products Formed: Amino Acid (determined after reduction with KBH4 and reaction with iodoacetamide) (5-oxo-L-prolinase [1]; substrate 5 mM, footnote e: less than 20 nmol): 0 nmol
level of hepatic glutathione relative to controls (hepatic glutathione): No such stimulation was observed
inhibition of glutamate formation (in words) (5-oxo-L-prolinase [2]): did not inhibit glutamate formation

O=C1NC[C@@H](C(=O)O)N1 [L-2-imidazolidone-4-carboxylate]
Products Formed: ADP (5-oxo-L-prolinase [1]; substrate 2 mM, 5 mM ATP, 20 micrograms enzyme, 30 min at 37° C., pH 8.0, pyruvate kinase-lactate dehydrogenase coupled assay): 930 nmol
Products Formed: Amino Acid (5-oxo-L-prolinase [1]; substrate 2 mM, footnote f: less than 5 nmol): 0 nmol

O=C1N[C@H](C(=O)O)CS1 [L-2-oxothiazolidine-4-carboxylate]
effect on the metabolism of glutamate (metabolism of glutamate): does not have a significant effect
injected dose (radioactivity) excreted in urine (5-oxoproline metabolism; animals treated with L-isomer and injected with 5-oxo-L-[14C]proline, none in urine of controls): about 16%
activity on a molar basis compared with L-2-imidazolidine-4-carboxylate (inhibition of 5-oxoproline metabolism in vivo) (5-oxoproline metabolism; in vivo comparison): at least four times more active
formation of [14CO2] from injected 5-oxo-L-[14C]proline (5-oxoproline metabolism; mice, Na salt 2.5 mmol/kilo intraperitoneally, 10 min before 5-oxo-L-[14C]proline s.c.): marked decrease
apparent Km value (5-oxo-L-prolinase [1]; compared with the natural substrate 5-oxo-L-proline): somewhat lower than that found for the natural substrate
Reaction with the enzyme in the presence of ATP (formation of ADP and cysteine) (5-oxo-L-prolinase [1]; 5 mM ATP): rapid formation of ADP and cysteine
Products Formed: Amino Acid (after conversion to cystine) (5-oxo-L-prolinase [1]; [3]): 463 nmol
Products Formed: Amino Acid (determined after reduction with KBH4 and reaction with iodoacetamide) (5-oxo-L-prolinase [1]; [3]): 466 nmol
liver glutathione after depletion (liver glutathione): restoration of normal hepatic glutathione levels
liver glutathione after depletion (liver glutathione; listed as L-isomer compound): an increase in liver glutathione occurs
free cysteine in acid extracts of the livers (hepatic glutathione; amino acid analyses after reduction by dithiothreitol and derivatization with 2-vinylpyridine): No free cysteine was detected
level of hepatic glutathione relative to controls (hepatic glutathione): about twice those of the controls
